Results taken from ChEMBL document CHEMBL1201862, “PubChem BioAssay data set” (2004).
Activity calls are given as the source filed them.

Legend:
[1] = target: Bcl-2-like protein 10 (Homo sapiens, UniProt Q9HD36); assay: displacers of TR3 peptide from Bcl-B, primary screen, selectivity assay for Bfl-1 inhibitor project, biochemical, fluorescence polarization, FITC-TR3 peptide (AID 748);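 further: fluorescence polarization from a fluorescein-labelled TR3 peptide binding purified Bcl-B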
[2] = target: Estrogen receptor beta (Homo sapiens, UniProt Q92731); assay: ERβ–SRC-3 coactivator interaction inhibitors, confirmation, orthogonal assay, biochemical, ELISA, streptavidin-HRP readout (AID 1060)
[3] = tested on: HeLa; assay: HeLa cell cytotoxicity, dose response, cytotoxicity control, 24 h, cherry-picked samples (AID 504726); assay type: functional, cell-based; settings: Homo sapiens;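 further: potency for cytotoxicity as loss of luminescence signal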
[4] = target: ORF 73 (Human herpesvirus 8, UniProt O40947); assay: inhibitors of C-LANA binding to LBS DNA, dose response, biochemical, fluorescence polarization, cherry-picked samples (AID 504725); design: species or system Human gammaherpesvirus 8;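 further: fluorescence polarization of a labeled DNA duplex reporting LANA DNA binding; potency is for inhibitors that block LANA binding to the DNA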
[5] = target: Nonstructural protein 1 (Influenza A virus, UniProt Q194T2); assay type: functional, Influenza A virus (A/California/07/2009(H1N1))
[6] = HeLa cell cytotoxicity, dose response, cytotoxicity control for MgcRacGAP inhibitor project (AID 624300); assay type: functional
[7] = target: T1, Rac GTPase-activating protein 1 (Homo sapiens, UniProt Q9H0H5); assay: MgcRacGAP GTPase-activating activity inhibitors, confirmation, biochemical, ADP Hunter fluorescence, primary and confirmatory (AID 624330); assay type: functional
T1 sequence (Q9H0H5 whole entry): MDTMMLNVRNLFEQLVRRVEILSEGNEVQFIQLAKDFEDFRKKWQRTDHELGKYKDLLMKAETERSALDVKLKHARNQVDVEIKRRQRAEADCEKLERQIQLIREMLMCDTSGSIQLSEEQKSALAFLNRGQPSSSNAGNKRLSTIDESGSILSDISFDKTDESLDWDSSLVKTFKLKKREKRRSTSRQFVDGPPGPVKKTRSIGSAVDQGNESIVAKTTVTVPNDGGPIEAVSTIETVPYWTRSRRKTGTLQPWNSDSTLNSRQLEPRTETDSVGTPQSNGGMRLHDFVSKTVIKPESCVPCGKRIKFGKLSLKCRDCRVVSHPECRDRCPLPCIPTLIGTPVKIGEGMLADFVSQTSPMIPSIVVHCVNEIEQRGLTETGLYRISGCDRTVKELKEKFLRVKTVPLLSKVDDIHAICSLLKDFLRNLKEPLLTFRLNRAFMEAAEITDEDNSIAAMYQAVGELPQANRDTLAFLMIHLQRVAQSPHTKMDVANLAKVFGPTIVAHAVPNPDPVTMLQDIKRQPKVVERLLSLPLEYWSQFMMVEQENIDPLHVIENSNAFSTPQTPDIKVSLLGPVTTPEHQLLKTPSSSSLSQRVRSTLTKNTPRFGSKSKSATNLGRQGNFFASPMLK

[8] = target: Protein S100-A4 (Homo sapiens, UniProt P26447); assay: S100A4-myosin IIA binding inhibitor potency, dose response, biochemical, fluorescence polarization, cherry-picked hits (AID 687001); assay type: functional
[9] = target: Paired box protein Pax-8 (Homo sapiens, UniProt Q06710); assay: inhibitors of PAX8-driven TPO luciferase reporter, dose response, RMG-I cells, cherry-pick (AID 687027); assay type: functional, cell-based;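 further: luciferase reporter driven by Pax8 target thyroperoxidase promoter measured by SteadyGlo luminescence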
[10] = target: T2, Kappa-type opioid receptor (Homo sapiens, UniProt P41145); assay type: functional
[11] = target: Beta-galactosidase (Escherichia coli, UniProt Q8VNN2); assay type: functional
[12] = target: T2, Kappa-type opioid receptor; assay type: functional; remark: listed apart in the source

T2 sequence (P41145 whole entry): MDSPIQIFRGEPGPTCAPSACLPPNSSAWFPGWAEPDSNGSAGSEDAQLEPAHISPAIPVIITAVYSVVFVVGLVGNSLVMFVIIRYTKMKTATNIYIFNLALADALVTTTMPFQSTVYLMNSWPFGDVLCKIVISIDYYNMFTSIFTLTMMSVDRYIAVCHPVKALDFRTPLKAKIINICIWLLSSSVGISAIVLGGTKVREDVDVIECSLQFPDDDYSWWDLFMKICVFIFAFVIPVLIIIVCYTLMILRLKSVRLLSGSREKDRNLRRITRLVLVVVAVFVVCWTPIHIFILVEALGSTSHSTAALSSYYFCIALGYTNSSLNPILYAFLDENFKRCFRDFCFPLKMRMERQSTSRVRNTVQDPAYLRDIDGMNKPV
Chain of Beta-galactosidase (Q8VNN2 whole entry): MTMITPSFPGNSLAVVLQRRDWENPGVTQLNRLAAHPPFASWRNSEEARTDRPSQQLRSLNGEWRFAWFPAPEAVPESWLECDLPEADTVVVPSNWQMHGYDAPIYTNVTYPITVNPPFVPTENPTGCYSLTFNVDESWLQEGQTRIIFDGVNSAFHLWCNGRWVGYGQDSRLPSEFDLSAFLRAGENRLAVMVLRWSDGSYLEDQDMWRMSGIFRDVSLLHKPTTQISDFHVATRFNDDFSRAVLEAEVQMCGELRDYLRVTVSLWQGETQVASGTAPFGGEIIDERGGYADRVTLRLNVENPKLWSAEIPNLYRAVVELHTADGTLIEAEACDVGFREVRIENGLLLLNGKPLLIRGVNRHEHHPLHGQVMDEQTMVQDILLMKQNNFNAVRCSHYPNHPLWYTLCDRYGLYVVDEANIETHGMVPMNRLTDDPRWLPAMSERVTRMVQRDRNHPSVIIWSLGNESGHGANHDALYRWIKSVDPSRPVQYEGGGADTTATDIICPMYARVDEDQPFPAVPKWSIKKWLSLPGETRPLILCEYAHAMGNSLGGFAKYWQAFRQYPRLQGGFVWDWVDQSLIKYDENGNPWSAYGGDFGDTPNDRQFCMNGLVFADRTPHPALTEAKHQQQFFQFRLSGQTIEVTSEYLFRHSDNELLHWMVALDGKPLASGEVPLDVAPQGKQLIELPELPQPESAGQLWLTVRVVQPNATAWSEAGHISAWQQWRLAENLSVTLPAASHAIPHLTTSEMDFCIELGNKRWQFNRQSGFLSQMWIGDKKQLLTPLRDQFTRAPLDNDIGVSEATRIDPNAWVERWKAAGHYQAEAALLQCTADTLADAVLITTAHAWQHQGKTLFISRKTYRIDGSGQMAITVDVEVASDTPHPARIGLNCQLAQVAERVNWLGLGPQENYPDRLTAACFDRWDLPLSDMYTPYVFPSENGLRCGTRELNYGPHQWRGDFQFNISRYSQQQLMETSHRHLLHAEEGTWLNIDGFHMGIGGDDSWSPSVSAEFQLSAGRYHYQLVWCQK
Chain of Paired box protein Pax-8 (Q06710 whole entry): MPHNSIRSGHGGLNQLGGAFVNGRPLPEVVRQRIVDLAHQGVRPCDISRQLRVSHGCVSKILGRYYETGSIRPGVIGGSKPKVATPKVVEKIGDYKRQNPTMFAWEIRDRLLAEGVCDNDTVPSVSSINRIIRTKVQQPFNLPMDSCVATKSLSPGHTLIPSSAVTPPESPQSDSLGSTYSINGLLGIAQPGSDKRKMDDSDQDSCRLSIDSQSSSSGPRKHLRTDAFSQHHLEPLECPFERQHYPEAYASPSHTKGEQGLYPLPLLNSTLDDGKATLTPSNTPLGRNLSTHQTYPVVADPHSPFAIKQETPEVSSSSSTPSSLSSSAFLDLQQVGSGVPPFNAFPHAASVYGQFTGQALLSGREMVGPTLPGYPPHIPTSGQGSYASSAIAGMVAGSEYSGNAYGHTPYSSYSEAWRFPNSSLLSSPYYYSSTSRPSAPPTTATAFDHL
Chain of Bcl-2-like protein 10 (Q9HD36 whole entry): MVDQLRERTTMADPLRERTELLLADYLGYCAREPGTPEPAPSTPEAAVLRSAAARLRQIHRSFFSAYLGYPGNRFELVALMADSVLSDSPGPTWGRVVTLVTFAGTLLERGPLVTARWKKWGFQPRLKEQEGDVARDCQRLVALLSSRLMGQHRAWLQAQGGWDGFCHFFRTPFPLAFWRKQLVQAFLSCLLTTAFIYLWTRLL
Chain of Nonstructural protein 1 (Q194T2 whole entry): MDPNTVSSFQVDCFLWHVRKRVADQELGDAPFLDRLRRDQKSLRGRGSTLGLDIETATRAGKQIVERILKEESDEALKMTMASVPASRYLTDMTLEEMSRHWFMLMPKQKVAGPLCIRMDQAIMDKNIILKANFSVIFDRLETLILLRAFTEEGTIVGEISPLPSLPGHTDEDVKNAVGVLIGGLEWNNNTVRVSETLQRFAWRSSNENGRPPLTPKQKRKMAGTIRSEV
Chain of Protein S100-A4 (P26447 whole entry): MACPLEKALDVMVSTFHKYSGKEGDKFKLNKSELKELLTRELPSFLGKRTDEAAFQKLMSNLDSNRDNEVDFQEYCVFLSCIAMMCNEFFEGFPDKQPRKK
Chain of Estrogen receptor beta (Q92731 whole entry): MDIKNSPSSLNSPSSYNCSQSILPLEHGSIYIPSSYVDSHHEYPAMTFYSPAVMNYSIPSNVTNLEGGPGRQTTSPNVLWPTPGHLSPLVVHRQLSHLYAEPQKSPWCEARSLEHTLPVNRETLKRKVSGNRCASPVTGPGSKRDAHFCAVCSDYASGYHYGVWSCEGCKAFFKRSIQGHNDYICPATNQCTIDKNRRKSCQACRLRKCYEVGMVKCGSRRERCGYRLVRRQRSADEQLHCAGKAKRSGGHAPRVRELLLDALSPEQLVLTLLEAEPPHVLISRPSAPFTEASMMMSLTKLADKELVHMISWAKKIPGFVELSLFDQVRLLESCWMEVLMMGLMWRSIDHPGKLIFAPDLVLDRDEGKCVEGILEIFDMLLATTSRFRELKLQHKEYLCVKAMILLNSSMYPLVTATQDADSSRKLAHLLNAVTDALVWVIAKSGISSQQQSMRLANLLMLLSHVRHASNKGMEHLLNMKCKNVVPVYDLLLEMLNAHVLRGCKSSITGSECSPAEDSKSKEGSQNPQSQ
Chain of ORF 73 (O40947 whole entry): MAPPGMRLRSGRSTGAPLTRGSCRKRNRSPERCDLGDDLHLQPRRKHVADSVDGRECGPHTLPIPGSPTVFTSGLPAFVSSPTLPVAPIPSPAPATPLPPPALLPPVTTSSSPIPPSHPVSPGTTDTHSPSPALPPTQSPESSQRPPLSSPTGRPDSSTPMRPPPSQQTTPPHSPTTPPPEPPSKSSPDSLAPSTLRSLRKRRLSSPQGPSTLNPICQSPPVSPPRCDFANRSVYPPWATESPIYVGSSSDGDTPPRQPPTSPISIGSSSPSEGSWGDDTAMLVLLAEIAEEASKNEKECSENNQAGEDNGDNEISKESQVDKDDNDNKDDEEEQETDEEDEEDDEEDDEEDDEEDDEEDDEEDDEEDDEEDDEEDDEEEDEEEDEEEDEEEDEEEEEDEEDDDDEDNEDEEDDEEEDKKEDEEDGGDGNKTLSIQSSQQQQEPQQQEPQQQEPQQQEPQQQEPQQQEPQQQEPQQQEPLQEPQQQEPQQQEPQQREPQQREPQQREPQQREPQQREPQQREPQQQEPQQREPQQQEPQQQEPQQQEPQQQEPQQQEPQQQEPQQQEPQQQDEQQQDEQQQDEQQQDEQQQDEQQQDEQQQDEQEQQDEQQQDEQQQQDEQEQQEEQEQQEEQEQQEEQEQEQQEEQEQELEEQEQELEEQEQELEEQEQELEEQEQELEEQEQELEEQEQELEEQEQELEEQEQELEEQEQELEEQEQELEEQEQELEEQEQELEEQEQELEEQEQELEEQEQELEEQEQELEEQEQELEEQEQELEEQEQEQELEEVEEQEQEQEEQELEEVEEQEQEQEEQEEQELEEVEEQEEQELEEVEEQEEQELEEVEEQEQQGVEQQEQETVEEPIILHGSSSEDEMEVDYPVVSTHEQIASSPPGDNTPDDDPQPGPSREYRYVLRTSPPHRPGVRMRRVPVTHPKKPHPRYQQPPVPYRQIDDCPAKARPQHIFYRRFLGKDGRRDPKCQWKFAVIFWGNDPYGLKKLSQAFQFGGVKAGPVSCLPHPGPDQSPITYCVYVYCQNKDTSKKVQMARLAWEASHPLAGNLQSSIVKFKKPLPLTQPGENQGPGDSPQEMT

## Cc1cc(C)n2nc(C(=O)OCC(=O)c3cc(C)n(C)c3C)nc2n1
[1]
  IC50: 24.4 µM (active)
[2]
  IC50: > 50 µM (not active)

## COc1cccc2c1C(=O)c1c(O)c3c(c(O)c1C2=O)CC(O)(C(C)=NNC(=O)c1ccc(Cl)c(Cl)c1)CC3OC1CC(N)C(O)C(C)O1 (configuration not stated)
[3]
  AC50: 3.38 µM (active)
[4]
  AC50: 13.2 µM (active)
[5]
  IC50: 3.67 µM (active)
[6]
  CC50: 9.6 µM (active)
[7]
  IC50: 54.9 µM (active)
[8]
  AC50: 0.562 µM (active)
[9]
  AC50: 4.72 µM (active)

## C=CC/N=c1\scc(-c2ccc3c(c2)NC(=O)CO3)n1/N=C(\C)c1ccccn1
[10]
  IC50: 10.1 µM (active)
[11]
  EC50: > 31.5 µM (inactive)
[12]
  IC50: > 32 µM
